“Also recorded” adds a separate entry of the source.
Assays:
[1] = tested on: H2DCF; test: Redox activity: H2DCF oxidation to DCF (cell-free, L-cysteine/H2O2); assay type: biochemical; settings: 10 μM, pH 7.4 and pH 5, no added CuCl2
Procedure: Redox activity in cells was examined using an established in vitro method examining 2′,7′-dichlorodihydrofluorescein (H2DCF) oxidation to fluorescent 2′,7′-dichlorofluorescein (DCF) at cytosolic pH (pH 7.4 using HBSS buffer) relative to lysosomal pH (pH 5; acetate buffer; Fig. 5).[25,26,28,42,46] To these buffers containing the complexes, L-cysteine (100 μM) was added as a reducing agent, followed by H2DCF (5 μM). Then, hydrogen peroxide (H2O2; 100 μM) was added to initiate hydroxyl radical generation. Both [Cu(DpC)Cl2] and [Cu(DpC)2] were used as positive controls due to their documented redox activity.[28,42] In contrast, the ligand, DpC, was implemented as a negative control, as it is redox inert.[28,42] As an additional control, the established Cu chelator, tetrathiomolybdate (TM), was utilized to remove Cu from the thiosemicarbazone complexes to indicate its role in their redox activity.[27,28,42] Additionally, UV-vis spectroscopy (300–700 nm) of the same solution for each complex was also performed to understand both the oxidation of H2DCF and the formation of fluorescent DCF upon excitation at 503 nm (Fig. S20A–F and S21A–F ^†). […]
ROS Generation Analysis with H 2DCF-DA
The generation of reactive oxygen species (ROS) was assessed by examining the oxidation of H2DCF.2, 8, 13, 14 Solutions containing CuCl2, TM, DpC, Dp4e4mT, [Fe(DpC)2]+, [Cu(DpC)Cl2], [Cu(DpC)2] and the Dp4e4mT complexes were prepared at a concentration of 10 µM in either HBSS (pH 7.4) or 150 mM acetate buffer (pH 5) to simulate the conditions of the cytosol and lysosome, respectively.2, 8, 14, 15 The H2DCF was prepared by deacetylation of DCFH-DA (Sigma-Aldrich) through alkaline hydrolysis using NaOH. 16
In these prepared solutions, L-cysteine (100 µM) was added as a reducing agent and then H2DCF (5 µM) added. The initiation of hydroxyl radical generation was achieved by the addition of hydrogen peroxide (H2O2; 100 µM). As a comparative benchmark, HBSS or acetate buffer containing L-cysteine, H2DCF, and H2O2, but lacking ligands or metal complexes, was employed as a control. Fluorescence measurements were carried out using a CLARIOstar Plus microplate reader (BMG LABTECH, Australia) with an excitation wavelength of 485 nm and an emission wavelength of 530 nm. 8, 14

[2] = Cyclic voltammetry (redox potentials); assay type: physicochemical; settings: 1 mM in MeCN/H2O 7 : 3 (v/v) + 0.1 M Et4NClO4, sweep rate 100 mV s^−1
Description: The redox potentials of Fe(III)- and Cu(II)-thiosemicarbazone complexes have been extensively studied and are important for understanding intracellular redox activity and ROS generation.[23,27,28,42] Considering this, the electrochemical properties of [Fe(Dp44mT)2]^+, [Fe(DpC)2]^+, [Fe(Dp4e4mT)2]^+, [Co(Dp4e4mT)2]^+, [Ni(Dp4e4mT)2], [Cu(Dp4e4mT)Cl], [Ga(Dp4e4mT)2]^+, and [Pd(Dp4e4mT)Cl] were investigated with cyclic voltammetry in MeCN : H2O (70 : 30 v/v; Fig. 4A and B). This solvent system was implemented to provide sufficient solubility and because it has been used by our laboratories previously to measure potentials of thiosemicarbazone complexes enabling effective comparison.[28,45,57–59]
Fig. 4 Cyclic voltammograms of: (A) [Fe(Dp44mT)2]^+, [Fe(DpC)2]^+, and [Fe(Dp4e4mT)2]^+. (B) [Co(Dp4e4mT)2]^+, [Ni(Dp4e4mT)2], [Cu(Dp4e4mT)Cl], [Ga(Dp4e4mT)2]^+, and [Pd(Dp4e4mT)Cl] (1 mM in MeCN/H2O 7 : 3 (v/v) + 0.1 M Et4NClO4) at a sweep rate of 100 mV s^−1. The voltammograms were recorded using a glassy carbon working electrode versus a […] (NHE). […]
Cyclic voltammograms were acquired for the Fe(III), Co(III), Ni(II), Cu(II), Ga(III), and Pd(II) complexes of Dp4e4mT utilizing a BAS100B/W potentiostat, equipped with an aqueous Ag/AgCl reference electrode, a glassy carbon working electrode, and a Pt wire auxiliary […]
electrode. […]

[3] = target: T1, oxy-Mb (Homo sapiens, UniProt P02144); test: Oxidation of purified oxy-Mb to met-Mb (UV-vis); assay type: biochemical; settings: 10 μM agent, oxy-Mb 40 μM, 3 h incubation, 20 °C
T1 sequence (P02144 1-154): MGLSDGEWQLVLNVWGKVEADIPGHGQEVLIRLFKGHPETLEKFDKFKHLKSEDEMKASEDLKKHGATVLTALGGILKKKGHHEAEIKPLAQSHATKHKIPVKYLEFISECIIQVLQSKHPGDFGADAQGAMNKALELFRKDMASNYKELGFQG
Description: As such, it was important to examine the effect of the Dp4e4mT complexes on oxy-Hb and oxy-Mb oxidation (Fig. 6 and 7). Comparisons were made to three controls, namely DFO, Dp44mT, and DpC, as well as their Fe(III) complexes. […] In contrast, the Fe(III) complexes of Dp44mT and DpC were positive controls, as they induce oxidation of oxy-Mb.[28,39,42]
Fig. 6 (A and B) Investigation of the effects of Dp4e4mT and its Fe(III), Co(III), Ni(II), Cu(II), Zn(II), Ga(III), and Pd(II) complexes versus the positive controls DFO, Dp44mT, DpC and their Fe(III) complexes (10 μM) on met-Mb generation (% zero time) after an incubation of 1–3 h/20 °C with purified oxy-Mb (40 μM). Results are mean ± SD (3 experiments).
Spectroscopic Examination of Met-Mb and Met-Hb Formation from Oxy-Mb and Oxy- […]
Oxy-Mb and oxy-Hb solutions were prepared following established protocols.8, 17 In brief, solutions of reduced Mb and Hb in PBS (pH 7.2) were prepared by adding 1.2 mL of Na2S2O4 (12 mM) to 38 mL of met-Mb and met-Hb solution (40 μM). 17 Subsequently, oxy-Mb and oxy-Hb were generated by gently passing 150 mL of oxygen (from an air-filled syringe) through the solution containing reduced Mb and Hb, effectively eliminating any residual Na2S2O4. Following this, the oxy-Mb and oxy-Hb solutions were passed through a PD-10 column prepacked with 8.3 mL of Sephadex G-25 and equilibrated with PBS (pH 7.2). 17 In experiments examining the activity of the agents, all complexes were dissolved in 1,2-propanediol, then diluted to 10 µM in PBS (pH 7.2). The experiments were conducted over incubations of 0 to 3 h with the agents. UV-Vis spectra covering the range of 300 to 700 nm were recorded at a temperature of 20°C using a Shimadzu UV−Vis spectrophotometer (UV-1800; Shimadzu, Kyoto, Japan). Concentrations of met-Mb and met-Hb, as well as reduced-Mb and reduced-Hb, were determined at 409 nm and 435 nm, respectively. Concentrations of oxy-Mb and oxy-Hb were determined at 544 nm and 582 nm, respectively. 17

[4] = target: T2, oxy-Hb in intact human erythrocytes (Homo sapiens, UniProt P68871+P69905); test: Oxidation of oxy-Hb in intact human erythrocytes; assay type: cell-based; settings: 10 μM, 3 h/37 °C
T2 construct: Physiologically, oxy-Hb is found in erythrocytes; endogenous in cells; host or cells: intact human erythrocytes from fresh blood of healthy donors
Procedure: Fig. 7 (A and B) Investigation of the effects of Dp4e4mT and its Fe(III), Co(III), Ni(II), Cu(II), Zn(II), Ga(III), and Pd(II) complexes versus DFO, Dp44mT, DpC and their Fe(III) complexes (10 μM) on met-Hb generation (% zero time) after an incubation of 1–3 h/20 °C with purified oxy-Hb (40 μM). (C) Investigation of the effects of Dp4e4mT and its Fe(III), Co(III), Ni(II), Cu(II), Zn(II), Ga(III), or Pd(II) complexes relative to the positive controls DFO, Dp44mT, DpC, and their Fe(III) complexes (10 μM) on oxy-Hb oxidation in intact human erythrocytes after a 3 h/37 °C incubation. Results are mean ± SD (3 experiments).
Physiologically, oxy-Hb is found in erythrocytes, and in the current investigation, the ligands and complexes (10 μM) were incubated with intact human erythrocytes for 3 h/37 °C to assess their effects on oxy-Hb oxidation (Fig. 7C). As expected from our previous studies,[28,39] […]
In experiments examining the activity of the agents, all complexes were dissolved in 1,2-propanediol, then diluted to 10 µM in PBS (pH 7.2). […]
1800; Shimadzu, Kyoto, Japan). Concentrations of met-Mb and met-Hb, as well as reduced-Mb and reduced-Hb, were determined at 409 nm and 435 nm, respectively. Concentrations of oxy-Mb and oxy-Hb were determined at 544 nm and 582 nm, respectively. 17 Oxidation of Oxy-Hb in Human Erythrocytes
Oxidation of oxy-Hb in human erythrocytes was performed by standard methods using fresh blood from healthy donors after collection in Vacutainer® collection tubes (BD, Plymouth, UK).8 Erythrocytes centrifuged (480 xg/5 min/4°C) and then washed in HBSS, and subsequently resuspended in this buffer. Incubation of the erythrocytes (15% hematocrit) in the absence or presence of the agents (10 μM) was performed for 3 h/37°C. The erythrocytes were […]

T2 sequence (P69905 2-142 limits assumed): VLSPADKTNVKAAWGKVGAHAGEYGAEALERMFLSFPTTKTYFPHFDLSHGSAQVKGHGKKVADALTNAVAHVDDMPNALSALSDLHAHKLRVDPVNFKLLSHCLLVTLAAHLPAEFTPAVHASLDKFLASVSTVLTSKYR
T2 sequence (P68871 2-147 limits assumed): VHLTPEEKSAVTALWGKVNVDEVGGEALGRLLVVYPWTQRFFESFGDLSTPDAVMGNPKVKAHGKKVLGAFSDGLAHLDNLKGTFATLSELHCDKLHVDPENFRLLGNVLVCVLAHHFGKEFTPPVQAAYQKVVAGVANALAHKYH

Redox potential (mV vs. NHE) [2]	oxy-Mb oxidation (met-Mb generation) [3]	Compound	DCF fluorescence (H2DCF oxidation) of agent alone [1]	oxy-Hb oxidation in erythrocytes versus the control (in words) [4]	further results
		CN(C(=S)NN=C(c1ccccn1)c1ccccn1)C1CCCCC1.[Cl-].[Cl-].[Cu+2] [[Cu(DpC)Cl2], reference compound]	significantly (p < 0.0001–0.01) increased DCF fluorescence; also recorded: greatest efficacy at increasing DCF fluorescence		
		[Cl][Cu][Cl] [CuCl2, reference compound]	significantly (p < 0.0001–0.01) increased DCF fluorescence		
+166 mV vs. NHE	222 % of the control	CN(C)C([S-])=NN=C(c1ccccn1)c1ccccn1.CN(C)C([S-])=NN=C(c1ccccn1)c1ccccn1.[Fe+3] [[Fe(Dp44mT)2]^+, reference compound]			oxy-Hb oxidation to met-Hb in erythrocytes ([4]; control 0.5%): 34.4 % of the total
+149 mV vs. NHE	161 % of the control	CN(C([S-])=NN=C(c1ccccn1)c1ccccn1)C1CCCCC1.CN(C([S-])=NN=C(c1ccccn1)c1ccccn1)C1CCCCC1.[Fe+3] [[Fe(DpC)2]^+, reference compound]		did not induce any significant (p > 0.05) increase in oxy-Hb oxidation	
		CC(=O)N([O-])CCCCCNC(=O)CCC(=O)N([O-])CCCCCNC(=O)CCC(=O)N([O-])CCCCCN.[Fe+3] [DFO Fe(III) complex, reference compound]		did not induce any significant (p > 0.05) increase in oxy-Hb oxidation	
		[SH-].[SH-].[S]=[Mo]=[S] [TM, tetrathiomolybdate, reference compound]	did not significantly (p > 0.05) increase DCF fluorescence		
